# Values of other authors, collected in PMC4741275 (Analytical Chemistry, 2016).
# Tested on: lysosomes
row,Compound,enrichment in lysosomes
1,Cc1ccc(NC(=O)c2ccc(CN3CCN(C)CC3)cc2)cc1Nc1nccc(-c2cccnc2)n1 [imatinib],over 1000 fold
2,Cc1cn(-c2cc(NC(=O)c3ccc(C)c(Nc4nccc(-c5cccnc5)n4)c3)cc(C(F)(F)F)c2)cn1 [nilotinib],over 1000 fold
